Legend:
[1] = Stability in mouse serum at 37 °C; assay type: in vitro ADME; conditions: for remaining at 1 h / remaining at 4 h / remaining at 24 h: mouse, mouse serum, read-out: Stability in mouse serum, % intact
Description: (§1) For serum stability, mouse serum or human serum (0.5 mL, both purchased from Sigma-Aldrich) was combined with an aliquot of each of the peptides [^64Cu]1 and [^64Cu]2 (≤25 μL, 14.8–22.2 MBq) and incubated at 37 °C. At each time point (1, 4, and 24 h) an aliquot (50–200 μL) was taken, proteins precipitated with ethanol, and removed by pelleting at 1500 (RCF) for 4 min. The ethanol solution was diluted with water (1 mL) and analyzed by RP-HPLC as previously described.

[2] = Stability in human serum at 37 °C; assay type: in vitro ADME; conditions: read-out: Stability in human serum, % intact
Description: as §1

BxPC-3 xenograft tumors = experiment: Biodistribution in mice bearing BxPC-3 xenograft tumors; assay type: in vivo; conditions: for Fold increase in tumor accumulation over non-ABM [64Cu]Cu DOTA-αvβ6-BP: BxPC-3 tumor model
Description: All animal procedures conformed to the Animal Welfare Act and were approved by the University of California, Davis Institutional Animal Care and Use Committee. Female athymic nu/nu-nude mice (6–8 weeks old) were purchased from Charles River Laboratories (Wilmington, MA, USA) and provided food and water on an ad libitum basis. BxPC-3 xenografts were implanted according to previous methods. Briefly, BxPC-3 cells were evaluated by flow cytometry to confirm integrin αvβ6 expression levels, injected subcutaneously into the left flank [5 million in 100 μL of a 1:1 mixture of serum-free RPMI and GFR Matrigel (Corning, New York, NY, USA)], and allowed to grow for approximately 3 weeks until tumors reached a diameter of 0.5–1 cm.
For biodistribution studies the [^64Cu]1–4 (3.7–5.55 MBq) in PBS (100 μL, pH 7.2) was injected intravenously (i.v.) via catheter into the tail vein. Following a conscious uptake period, the mice were anesthetized (5% isoflurane), euthanized, and dissected ([^64Cu]1 and [^64Cu]2, n = 3/radiolabeled peptide/time point; 4, 24, and 48 h p.i.; the 72 h time point was obtained from the imaging animals after the 72 h PET/CT scans; compounds [^64Cu]3 and [^64Cu]4, n = 2/radiolabeled compound at 4 h p.i.). Tissues were rapidly collected, weighed, and radioactivity measured with a γ-counter. Decay-corrected radioactivity concentrations are expressed as the percentage of injected dose per gram of tissue (% ID/g). Data are reported as mean ± standard deviation (SD) (Figure S20, S21 and S25).

mouse serum protein = experiment: Mouse serum protein binding by ultrafiltration; assay type: in vitro ADME; conditions: 37 °C
Description: Serum protein binding of [^64Cu]1 and [^64Cu]2 was assessed following the previously reported method. Peptides [^64Cu]1 and [^64Cu]2 were evaluated by ultrafiltration using Centrifree Ultrafiltration devices (EMD) according to the manufacturer’s recommendations. Experiments were carried out in triplicate. The Centrifree Ultrafiltration devices were pretreated with PBS containing Tween 20 (5% v/v), followed by triplicate rinses with PBS. An aliquot of each peptide [^64Cu]1 or [^64Cu]2 in PBS (≤25 μL, 20–60 KBq) was thoroughly mixed with 0.5 mL of serum at 37 °C in a microfuge tube. The mixture was incubated at 37 °C for 5 min, and an aliquot (50 μL) was transferred to a tube for γ-counting. The remaining sample was transferred to a Centrifree Ultrafiltration device and centrifuged for 40 min at 1500 (RCF) at ambient temperature (20–24 °C). An aliquot (50 μL) of the filtrate was transferred to a tube for γ-counting. […] Following γ-counting, the protein-bound radioactivity was calculated by subtracting the counts measured in the filtrate aliquot (i.e., not protein-bound) from the counts in the corresponding serum aliquot. The data are expressed as mean ± standard deviation of fraction of radioactivity bound to protein after subtraction of non-specific binding determined in the blank.

Cc1cc(-c2ccc(NC(=O)CCC(=O)NCCCC[C@H](NC(=O)CN3CCN(CC(=O)O)CCN(CC(=O)O)CCN(CC(=O)O)CC3)C(=O)NCCOCCOCCOCCOCCOCCOCCOCCOCCOCCOCCOCCOCCOCCOCCOCCOCCOCCOCCOCCOCCOCCOCCOCCOCCOCCOCCOCCOCCC(=O)N[C@@H](CC(N)=O)C(=O)N[C@@H](C)C(=O)N[C@H](C(=O)N3CCC[C@H]3C(=O)N[C@@H](CC(N)=O)C(=O)N[C@@H](CC(C)C)C(=O)N[C@@H](CCCNC(=N)N)C(=O)NCC(=O)N[C@@H](CC(=O)O)C(=O)N[C@@H](CC(C)C)C(=O)N[C@@H](CCC(N)=O)C(=O)N[C@H](C(=O)N[C@@H](CC(C)C)C(=O)N[C@@H](C)C(=O)N[C@@H](CCC(N)=O)C(=O)N[C@@H](CCCNC(=N)N)C(=O)N[C@H](C(=O)N[C@@H](C)C(=O)N[C@@H](CCCNC(=N)N)C(=O)N[C@H](C(=O)NCCOCCOCCOCCOCCOCCOCCOCCOCCOCCOCCOCCOCCOCCOCCOCCOCCOCCOCCOCCOCCOCCOCCOCCOCCOCCOCCOCCOCCC(N)=O)[C@@H](C)O)C(C)C)C(C)C)C(C)C)c(C)c2)ccc1N=Nc1ccc2c(S(=O)(=O)O)cc(S(=O)(=O)O)c(N)c2c1O [[^64Cu]1, [^64Cu]Cu DOTA-EB-αvβ6-BP, metal not drawn]
remaining at 1 h [1]: 78% | remaining at 4 h [1]: 58% | remaining at 24 h ([1]; 24 h): 14% | remaining at 1 h [2]: 99% | remaining at 4 h [2]: 89% | remaining at 24 h [2]: 76% | Tumor-Blood ratio (BxPC-3 xenograft tumors; 4 h p.i.): > 4/1 | Tumor-Kidney ratio (BxPC-3 xenograft tumors; 4 h p.i.): 0.07 ± 0.003 | Tumor-Lg Intestines ratio (BxPC-3 xenograft tumors; 4 h p.i.): 1.28 ± 0.12 | Tumor-Liver ratio (BxPC-3 xenograft tumors; 4 h p.i.): 3.2–4.9 | Tumor-Muscle ratio (BxPC-3 xenograft tumors; 4 h p.i.): > 8/1 | Tumor-Sm Intestines ratio (BxPC-3 xenograft tumors; 4 h p.i.): 1.12 ± 0.05 | Tumor-Stomach ratio (BxPC-3 xenograft tumors; 4 h p.i.): 0.83 ± 0.03 | Kidneys uptake (BxPC-3 xenograft tumors; 4 h p.i., i.v.): 75.5 ± 7.3 % ID/g | Tumor-Blood ratio (BxPC-3 xenograft tumors; 4 h p.i., listed as [64Cu]1): 4.30 ± 1.47 | Tumor-Liver ratio (BxPC-3 xenograft tumors; 4 h p.i., listed as [64Cu]1): 3.24 ± 0.14 | Tumor-Muscle ratio (BxPC-3 xenograft tumors; 4 h p.i., listed as [64Cu]1): 7.95 ± 0.55 | Tumor-Blood ratio (BxPC-3 xenograft tumors; 24 h p.i.): 15.41 ±3.77 | Tumor-Kidney ratio (BxPC-3 xenograft tumors; 24 h p.i.): 0.13 ± 0.06 | Tumor-Lg Intestines ratio (BxPC-3 xenograft tumors; 24 h p.i.): 1.41 ±0.43 | Tumor-Liver ratio (BxPC-3 xenograft tumors; 24 h p.i.): 2.39 ± 0.59 | Tumor-Muscle ratio (BxPC-3 xenograft tumors; 24 h p.i.): 9.47 ±4.84 | Tumor-Sm Intestines ratio (BxPC-3 xenograft tumors; 24 h p.i.): 1.75 ±0.52 | Tumor-Stomach ratio (BxPC-3 xenograft tumors; 24 h p.i.): 1.19 ±0.02 | Tumor-Blood ratio (BxPC-3 xenograft tumors; 48 h p.i.): 12.03± 1.44 | Tumor-Kidney ratio (BxPC-3 xenograft tumors; 48 h p.i.): 0.15 ± 0.02 | Tumor-Lg Intestines ratio (BxPC-3 xenograft tumors; 48 h p.i.): 1.51 ± 0.58 | Tumor-Liver ratio (BxPC-3 xenograft tumors; 48 h p.i.): 1.51 ± 0.29 | Tumor-Muscle ratio (BxPC-3 xenograft tumors; 48 h p.i.): 8.39 ± 3.59 | Tumor-Sm Intestines ratio (BxPC-3 xenograft tumors; 48 h p.i.): 2.18 ± 0.91 | Tumor-Stomach ratio (BxPC-3 xenograft tumors; 48 h p.i.): 1.41 ± 0.79 | Fold higher liver uptake than [64Cu]2 (BxPC-3 xenograft tumors; 72 h): > 1.8 fold | Tumor-Blood ratio (BxPC-3 xenograft tumors; 72 h p.i.): 10.07 ± 3.24 | Tumor-Kidney ratio (BxPC-3 xenograft tumors; 72 h p.i.): 0.19 ± 0.08 | Tumor-Lg Intestines ratio (BxPC-3 xenograft tumors; 72 h p.i.): 1.75 ±0.48 | Tumor-Liver ratio (BxPC-3 xenograft tumors; 72 h p.i.): 1.47 ± 0.47 | Tumor-Muscle ratio (BxPC-3 xenograft tumors; 72 h p.i.): 8.11 ±3.02 | Tumor-Sm Intestines ratio (BxPC-3 xenograft tumors; 72 h p.i.): 2.43 ±0.45 | Tumor-Stomach ratio (BxPC-3 xenograft tumors; 72 h p.i.): 1.65 ±0.32 | Kidneys uptake (BxPC-3 xenograft tumors; 72 h p.i., i.v.): 20.0 ± 6.9 % ID/g | Fold increase in tumor accumulation over non-ABM [64Cu]Cu DOTA-αvβ6-BP (BxPC-3 xenograft tumors): > 3 fold | Fold higher kidney uptake than [64Cu]2 (BxPC-3 xenograft tumors; for at least 48 h): > 1.7 fold | Binding to mouse serum protein (mouse serum protein): 41.9 ± 1.1%

CC(C)C[C@H](NC(=O)[C@H](CC(=O)O)NC(=O)CNC(=O)[C@H](CCCNC(=N)N)NC(=O)[C@H](CC(C)C)NC(=O)[C@H](CC(N)=O)NC(=O)[C@@H]1CCCN1C(=O)[C@@H](NC(=O)[C@H](C)NC(=O)[C@H](CC(N)=O)NC(=O)CCOCCOCCOCCOCCOCCOCCOCCOCCOCCOCCOCCOCCOCCOCCOCCOCCOCCOCCOCCOCCOCCOCCOCCOCCOCCOCCOCCOCCNC(=O)[C@H](CCCCNC(=O)[C@H](CC(=O)O)NC(=O)CCCNC(=O)CCCc1ccc(I)cc1)NC(=O)CN1CCN(CC(=O)O)CCN(CC(=O)O)CCN(CC(=O)O)CC1)C(C)C)C(=O)N[C@@H](CCC(N)=O)C(=O)N[C@H](C(=O)N[C@@H](CC(C)C)C(=O)N[C@@H](C)C(=O)N[C@@H](CCC(N)=O)C(=O)N[C@@H](CCCNC(=N)N)C(=O)N[C@H](C(=O)N[C@@H](C)C(=O)N[C@@H](CCCNC(=N)N)C(=O)N[C@H](C(=O)NCCOCCOCCOCCOCCOCCOCCOCCOCCOCCOCCOCCOCCOCCOCCOCCOCCOCCOCCOCCOCCOCCOCCOCCOCCOCCOCCOCCOCCC(N)=O)[C@@H](C)O)C(C)C)C(C)C [[^64Cu]2, [^64Cu]Cu DOTA-IP-αvβ6-BP, metal not drawn]
Fold higher stability than [64Cu]1 in mouse serum ([1]; 24 h): 3.4 fold | remaining at 1 h [1]: 92% | remaining at 4 h [1]: 83% | remaining at 24 h ([1]; 24 h): 48% | remaining at 1 h [2]: 99% | remaining at 4 h [2]: 93% | remaining at 24 h [2]: 90% | Tumor-Blood ratio (BxPC-3 xenograft tumors; 4 h p.i.): > 4/1 | Tumor-Kidney ratio (BxPC-3 xenograft tumors; 4 h p.i.): 0.23 ± 0.02 | Tumor-Lg Intestines ratio (BxPC-3 xenograft tumors; 4 h p.i.): 0.78 ± 0.10 | Tumor-Liver ratio (BxPC-3 xenograft tumors; 4 h p.i.): 3.2–4.9 | Tumor-Muscle ratio (BxPC-3 xenograft tumors; 4 h p.i.): > 8/1 | Tumor-Sm Intestines ratio (BxPC-3 xenograft tumors; 4 h p.i.): 0.80 ± 0.07 | Tumor-Stomach ratio (BxPC-3 xenograft tumors; 4 h p.i.): 0.43 ± 0.07 | BxPC-3 Tumor uptake (BxPC-3 xenograft tumors; 4 h p.i., i.v.): > 7.5 % ID/g | Kidneys uptake (BxPC-3 xenograft tumors; 4 h p.i., i.v.): 33.6 ± 5.4 % ID/g | Stomach uptake (BxPC-3 xenograft tumors; 4 h p.i., i.v.): 18.1 ± 2.9 % ID/g | Tumor-Blood ratio (BxPC-3 xenograft tumors; 4 h p.i., listed as [64Cu]2): 6.15 ± 0.47 | Tumor-Liver ratio (BxPC-3 xenograft tumors; 4 h p.i., listed as [64Cu]2): 4.89 ± 0.63 | Tumor-Muscle ratio (BxPC-3 xenograft tumors; 4 h p.i., listed as [64Cu]2): 8.16 ± 2.41 | Tumor-Blood ratio (BxPC-3 xenograft tumors; 24 h p.i.): 21.86 ±5.94 | Tumor-Kidney ratio (BxPC-3 xenograft tumors; 24 h p.i.): 0.20 ± 0.06 | Tumor-Lg Intestines ratio (BxPC-3 xenograft tumors; 24 h p.i.): 0.81 ±0.24 | Tumor-Liver ratio (BxPC-3 xenograft tumors; 24 h p.i.): 2.72 ± 0.62 | Tumor-Muscle ratio (BxPC-3 xenograft tumors; 24 h p.i.): 5.87 ±2.04 | Tumor-Sm Intestines ratio (BxPC-3 xenograft tumors; 24 h p.i.): 0.97 ±0.27 | Tumor-Stomach ratio (BxPC-3 xenograft tumors; 24 h p.i.): 0.39 ±0.09 | Tumor-Blood ratio (BxPC-3 xenograft tumors; 48 h p.i.): 22.11 ± 14.41 | Tumor-Kidney ratio (BxPC-3 xenograft tumors; 48 h p.i.): 0.35 ± 0.14 | Tumor-Lg Intestines ratio (BxPC-3 xenograft tumors; 48 h p.i.): 1.10 ± 0.47 | Tumor-Liver ratio (BxPC-3 xenograft tumors; 48 h p.i.): 2.46 ± 0.97 | Tumor-Muscle ratio (BxPC-3 xenograft tumors; 48 h p.i.): 6.68 ± 2.42 | Tumor-Sm Intestines ratio (BxPC-3 xenograft tumors; 48 h p.i.): 1.81 ± 0.61 | Tumor-Stomach ratio (BxPC-3 xenograft tumors; 48 h p.i.): 0.67 ± 0.27 | Tumor-Blood ratio (BxPC-3 xenograft tumors; 72 h p.i.): 28.82 ± 2.64 | Tumor-Kidney ratio (BxPC-3 xenograft tumors; 72 h p.i.): 0.44 ± 0.14 | Tumor-Lg Intestines ratio (BxPC-3 xenograft tumors; 72 h p.i.): 1.63 ±0.32 | Tumor-Liver ratio (BxPC-3 xenograft tumors; 72 h p.i.): 3.77 ± 0.72 | Tumor-Muscle ratio (BxPC-3 xenograft tumors; 72 h p.i.): 6.70 ±1.74 | Tumor-Sm Intestines ratio (BxPC-3 xenograft tumors; 72 h p.i.): 4.01 ±1.10 | Tumor-Stomach ratio (BxPC-3 xenograft tumors; 72 h p.i.): 1.55 ±0.08 | Fold increase in tumor accumulation over non-ABM [64Cu]Cu DOTA-αvβ6-BP (BxPC-3 xenograft tumors): > 3 fold | Binding to mouse serum protein (mouse serum protein): 44.0 ± 0.1%

Reference: publication PMC9025560, “A Comparison of Evans Blue and 4-(p-Iodophenyl)butyryl Albumin Binding Moieties on an Integrin αvβ6 Binding Peptide” (Pharmaceutics, 2022)
